# Assay results from ChEMBL document CHEMBL5131375, “Recent Developments in the Use of Kinase Inhibitors for Management of Viral Infections” (J Med Chem, 2022).
# Legend:
# in vitro [1] = conditions: human, pbl
# Measles morbillivirus = type: functional
# [2] = molecular target: Phosphatidylinositol 4-phosphate 3-kinase C2 domain-containing subunit beta (Homo sapiens, UniProt O00750); assay: Inhibition of PIK3C2beta (unknown origin)
# in vitro [3] = conditions: human, Huh-7 cells
# Human rhinovirus sp. = assay: Antiviral activity against RV; type: functional, organism-based, Enterovirus
# Influenza A virus [4] = assay: microbe, parasite or virus in culture; type: functional, organism-based
# Hepatitis C virus [5] = assay: microbe, parasite or virus in culture
# in vitro [6] = conditions: dog, MDCK cells
# Influenza B virus [7] = assay: Antiviral activity against influenza B virus; type: functional, organism-based
# [8] = molecular target: Epidermal growth factor receptor (Homo sapiens, UniProt P00533)
# [9] = Cytotoxicity against human A549 cells; type: toxicity, cell-based
# Dengue virus [10] = assay: microbe, parasite or virus in culture
# [11] = Cytotoxicity against MDDC cells (unknown origin); type: toxicity, cell-based
# [12] = Cytotoxicity against HMC3 cells; type: toxicity, cell-based; conditions: human
# [13] = molecular target: Calcium/calmodulin-dependent protein kinase type II subunit gamma (Homo sapiens, UniProt Q13555); assay: Inhibition of CAMK-II (unknown origin)
# [14] = Cytotoxicity against HEK293 cells; type: toxicity, cell-based; conditions: human
# Dengue virus [15] = assay: Antiviral activity against DENV infected in HEK293 cells; type: functional, organism-based
# [16] = Cytotoxicity against mouse NIH3T3 cells; type: toxicity, cell-based
# Murine coronavirus [17] = assay: Antiviral activity against mCoV-68 infected in african green monkey Vero cells incubated for 7 days by counting number of plaque by crystal violet staining method; type: functional, organism-based; conditions: Murine coronavirus, 68, Vero, 168 h
# Murine coronavirus [18] = assay: Antiviral activity against MHV; type: functional, organism-based
# HepG2 = assay: Cytotoxicity against human HepG2 cells at 1 uM; type: toxicity, cell-based; conditions: hepg2, 1 µM
# Hepatitis B virus = assay: microbe, parasite or virus in culture; type: functional, organism-based
# Zaire ebolavirus = assay: microbe, parasite or virus in culture; type: functional, organism-based
# Hepatitis C virus [19] = assay: Antiviral activity against HCV assessed as fold reduction in virus titre at 10 uM; type: functional, Hepacivirus hominis
# in vitro [20] = conditions: human, hek-293t
# [21] = Cytotoxicity against human LU cells; type: toxicity, cell-based
# Human betaherpesvirus 5 = assay: Antiviral activity against HCMV assessed as inhibition of DNA synthesis at 10 uM relative to control; type: functional
# [22] = Cytotoxicity against human MCF7 cells; type: toxicity, cell-based
# [23] = Cytotoxicity against human HL-60 cells; type: toxicity, cell-based
# [24] = molecular target: Protein kinase C beta type (Homo sapiens, UniProt P05771); assay: Inhibition of PKCbeta2 (unknown origin)
# Influenza B virus [25] = assay: Antiviral activity against influenza B virus assessed as log reduction of virus at 5 to 10 uM; type: functional; conditions: dose 5-10 µM
# Influenza A virus [26] = assay: Antiviral activity against influenza A virus assessed as log reduction of virus at 5 to 10 uM; type: functional; conditions: dose 5-10 µM
# Chain of Phosphatidylinositol 4-phosphate 3-kinase C2 domain-containing subunit beta (O00750 whole entry, the tested form may be a part): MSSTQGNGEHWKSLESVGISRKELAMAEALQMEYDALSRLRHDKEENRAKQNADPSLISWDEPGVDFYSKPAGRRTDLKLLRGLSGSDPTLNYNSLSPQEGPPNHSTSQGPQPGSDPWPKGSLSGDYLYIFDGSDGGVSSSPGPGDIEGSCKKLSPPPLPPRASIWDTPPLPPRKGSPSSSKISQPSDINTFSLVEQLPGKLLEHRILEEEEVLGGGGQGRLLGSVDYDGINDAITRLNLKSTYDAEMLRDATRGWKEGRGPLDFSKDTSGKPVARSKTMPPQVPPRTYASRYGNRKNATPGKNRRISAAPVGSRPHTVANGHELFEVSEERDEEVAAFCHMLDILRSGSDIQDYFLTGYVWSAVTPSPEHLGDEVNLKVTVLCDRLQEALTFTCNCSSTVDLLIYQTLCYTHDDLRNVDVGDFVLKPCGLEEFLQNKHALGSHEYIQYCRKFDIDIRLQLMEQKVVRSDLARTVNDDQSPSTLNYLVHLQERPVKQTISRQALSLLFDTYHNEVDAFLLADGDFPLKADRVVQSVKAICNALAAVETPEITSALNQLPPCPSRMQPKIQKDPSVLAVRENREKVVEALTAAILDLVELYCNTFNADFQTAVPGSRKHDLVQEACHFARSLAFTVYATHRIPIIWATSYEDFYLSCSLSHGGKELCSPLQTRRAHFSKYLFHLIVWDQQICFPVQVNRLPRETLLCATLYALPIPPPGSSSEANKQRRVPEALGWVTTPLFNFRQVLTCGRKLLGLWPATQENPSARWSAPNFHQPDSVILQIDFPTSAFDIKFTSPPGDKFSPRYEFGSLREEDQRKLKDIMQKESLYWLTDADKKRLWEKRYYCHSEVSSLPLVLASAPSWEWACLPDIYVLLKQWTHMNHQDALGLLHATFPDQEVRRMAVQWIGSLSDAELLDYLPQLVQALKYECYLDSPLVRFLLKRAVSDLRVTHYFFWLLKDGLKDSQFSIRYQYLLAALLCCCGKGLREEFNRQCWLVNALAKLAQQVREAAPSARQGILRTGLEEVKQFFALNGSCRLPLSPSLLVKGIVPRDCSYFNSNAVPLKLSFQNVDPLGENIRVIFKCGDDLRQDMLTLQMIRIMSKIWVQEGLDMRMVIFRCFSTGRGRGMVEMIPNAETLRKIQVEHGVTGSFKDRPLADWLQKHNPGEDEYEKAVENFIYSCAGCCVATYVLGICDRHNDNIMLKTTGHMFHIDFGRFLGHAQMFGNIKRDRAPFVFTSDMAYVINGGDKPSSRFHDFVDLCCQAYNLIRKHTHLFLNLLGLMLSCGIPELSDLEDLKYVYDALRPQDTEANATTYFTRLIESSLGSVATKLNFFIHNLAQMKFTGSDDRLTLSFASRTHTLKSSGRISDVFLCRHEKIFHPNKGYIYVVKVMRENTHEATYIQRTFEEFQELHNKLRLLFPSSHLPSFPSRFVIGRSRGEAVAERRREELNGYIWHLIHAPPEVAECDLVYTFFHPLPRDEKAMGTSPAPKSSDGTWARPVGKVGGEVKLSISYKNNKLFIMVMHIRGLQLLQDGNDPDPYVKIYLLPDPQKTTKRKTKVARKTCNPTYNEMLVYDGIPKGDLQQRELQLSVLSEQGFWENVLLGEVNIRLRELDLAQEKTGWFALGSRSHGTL
# Chain of Epidermal growth factor receptor (P00533 whole entry): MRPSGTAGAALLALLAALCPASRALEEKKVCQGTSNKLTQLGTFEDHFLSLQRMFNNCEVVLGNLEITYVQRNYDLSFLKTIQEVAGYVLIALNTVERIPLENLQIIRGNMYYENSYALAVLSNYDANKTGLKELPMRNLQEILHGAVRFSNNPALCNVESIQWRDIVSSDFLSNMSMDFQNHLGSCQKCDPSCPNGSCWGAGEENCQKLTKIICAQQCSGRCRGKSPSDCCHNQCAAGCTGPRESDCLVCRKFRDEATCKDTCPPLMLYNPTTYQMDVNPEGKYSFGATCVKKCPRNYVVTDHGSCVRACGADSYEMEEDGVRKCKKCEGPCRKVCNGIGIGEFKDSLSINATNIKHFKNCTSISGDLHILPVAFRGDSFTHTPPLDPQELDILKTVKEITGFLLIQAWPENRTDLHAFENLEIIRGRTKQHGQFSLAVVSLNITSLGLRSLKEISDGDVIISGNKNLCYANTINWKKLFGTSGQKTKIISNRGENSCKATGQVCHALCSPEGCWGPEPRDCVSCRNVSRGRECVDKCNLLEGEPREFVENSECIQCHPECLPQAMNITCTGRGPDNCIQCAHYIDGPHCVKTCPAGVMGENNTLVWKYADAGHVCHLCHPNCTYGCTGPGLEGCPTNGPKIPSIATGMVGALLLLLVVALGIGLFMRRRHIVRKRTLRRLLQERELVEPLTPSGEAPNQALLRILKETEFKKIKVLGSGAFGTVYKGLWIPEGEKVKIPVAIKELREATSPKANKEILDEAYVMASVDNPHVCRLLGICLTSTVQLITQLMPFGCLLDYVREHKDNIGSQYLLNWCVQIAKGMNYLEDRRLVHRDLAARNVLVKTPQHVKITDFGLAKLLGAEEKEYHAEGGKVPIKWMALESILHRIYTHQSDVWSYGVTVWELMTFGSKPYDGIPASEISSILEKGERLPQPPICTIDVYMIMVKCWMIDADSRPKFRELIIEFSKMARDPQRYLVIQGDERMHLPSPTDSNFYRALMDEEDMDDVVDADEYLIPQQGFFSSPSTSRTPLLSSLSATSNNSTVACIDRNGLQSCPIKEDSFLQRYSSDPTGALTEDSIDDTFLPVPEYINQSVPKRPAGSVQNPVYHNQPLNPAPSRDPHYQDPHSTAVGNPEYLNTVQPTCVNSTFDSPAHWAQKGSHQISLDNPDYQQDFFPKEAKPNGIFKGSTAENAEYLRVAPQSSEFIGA
# Chain of Calcium/calmodulin-dependent protein kinase type II subunit gamma (Q13555 whole entry): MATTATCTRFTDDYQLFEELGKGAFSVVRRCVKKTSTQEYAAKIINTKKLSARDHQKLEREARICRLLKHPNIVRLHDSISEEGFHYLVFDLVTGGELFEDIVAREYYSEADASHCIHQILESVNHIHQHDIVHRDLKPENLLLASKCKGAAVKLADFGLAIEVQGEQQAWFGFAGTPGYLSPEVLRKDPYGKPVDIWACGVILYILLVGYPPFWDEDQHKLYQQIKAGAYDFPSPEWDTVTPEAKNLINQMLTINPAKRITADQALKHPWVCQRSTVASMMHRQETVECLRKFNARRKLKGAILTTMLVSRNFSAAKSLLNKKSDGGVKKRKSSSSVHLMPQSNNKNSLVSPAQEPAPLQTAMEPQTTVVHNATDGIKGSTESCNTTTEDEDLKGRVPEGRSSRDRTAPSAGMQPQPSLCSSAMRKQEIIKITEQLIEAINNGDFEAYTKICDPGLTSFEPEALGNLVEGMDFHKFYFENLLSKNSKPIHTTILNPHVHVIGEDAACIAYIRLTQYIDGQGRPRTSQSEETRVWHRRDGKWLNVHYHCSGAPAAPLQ
# Chain of Protein kinase C beta type (P05771 whole entry): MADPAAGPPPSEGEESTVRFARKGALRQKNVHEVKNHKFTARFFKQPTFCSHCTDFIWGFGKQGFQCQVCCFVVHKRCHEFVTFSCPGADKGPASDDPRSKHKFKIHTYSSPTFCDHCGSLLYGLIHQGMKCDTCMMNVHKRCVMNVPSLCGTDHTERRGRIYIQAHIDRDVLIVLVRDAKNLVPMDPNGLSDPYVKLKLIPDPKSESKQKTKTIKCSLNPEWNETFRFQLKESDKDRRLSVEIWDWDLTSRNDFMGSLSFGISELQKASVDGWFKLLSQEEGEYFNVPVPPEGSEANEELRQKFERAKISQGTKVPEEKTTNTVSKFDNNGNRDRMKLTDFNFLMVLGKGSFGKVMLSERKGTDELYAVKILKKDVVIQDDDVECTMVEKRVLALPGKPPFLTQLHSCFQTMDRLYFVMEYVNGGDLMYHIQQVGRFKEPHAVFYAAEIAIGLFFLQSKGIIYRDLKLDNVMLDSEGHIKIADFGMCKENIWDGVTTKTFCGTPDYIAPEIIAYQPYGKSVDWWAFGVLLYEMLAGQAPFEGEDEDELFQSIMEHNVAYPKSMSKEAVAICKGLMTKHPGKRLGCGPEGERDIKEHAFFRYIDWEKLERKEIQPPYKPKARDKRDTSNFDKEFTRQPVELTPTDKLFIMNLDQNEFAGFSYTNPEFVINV
smiles,measurement,setting,value
Oc1ccc(Nc2nc(-c3ccc(Cl)cc3)cs2)cc1,CC50,in vitro [1],> 5000 nM
same,inhibition (INH),Measles morbillivirus,70%
O=C(Cc1cccs1)Nc1cccc(-c2ccc3nnc(-c4cccnc4)n3n2)c1,IC50,[2],430 nM
same,CC50,in vitro [3],> 50000 nM
same,EC50,Human rhinovirus sp.,50 nM
same,EC50,Influenza A virus [4],350 nM
same,EC50,Hepatitis C virus [5],760 nM
same,CC50,in vitro [6],> 50000 nM
same,EC50,Influenza B virus [7],400 nM
same,IC50,[8],79 nM
same,CC50,[9],> 50000 nM
COc1cc(-c2cnc3c(N4C[C@@H](C)O[C@@H](C)C4)snc3c2)ccc1N,EC50,Dengue virus [10],3500 nM
same,CC50,[11],> 20000 nM
COc1ccc(S(=O)(=O)N(CCCC(=O)C2CCCCCC2)c2ccccc2)cc1,CC50,[12],> 12500 nM
same,IC50,[13],790 nM
O=S(=O)(NCCNC/C=C/c1ccc(Br)cc1)c1cccc2cnccc12,CC50,[14],> 1000 nM
same,IC50,Dengue virus [10],960 nM
same,IC50,Dengue virus [15],900 nM
CC(C)=CCC[C@](C)(O)C1CC[C@]2(C)[C@@H]1[C@H](O)C[C@@H]1[C@@]3(C)CC[C@H](O[C@@H]4O[C@H](CO)[C@@H](O)[C@H](O)[C@H]4O[C@@H]4O[C@H](CO)[C@@H](O)[C@H](O)[C@H]4O)C(C)(C)[C@@H]3CC[C@]12C (stereo partly drawn),CC50,[16],> 50000 nM
same,IC50,Murine coronavirus [17],10000 nM
same,IC50,Murine coronavirus [18],10000 nM
Cc1n[nH]c2ccc(-c3cncc(OC[C@@H](N)Cc4c[nH]c5ccccc45)c3)cc12 [A-443654],Activity,HepG2,Non-Toxic
same,inhibition (INH),Hepatitis B virus,50%
O=c1cc(N2CCOCC2)oc2c(-c3ccccc3)cccc12 [LY-294002],EC50,Zaire ebolavirus,1800 nM
same,fold change (FC),Hepatitis C virus [19],5
same,CC50,in vitro [20],> 20000 nM
Cn1cnc2c(NCc3ccccc3)nc(NCCO)nc21 [OLOMOUCINE],CC50,[21],> 15000 nM
same,inhibition at 10 µM,Human betaherpesvirus 5,50%
O=C1NC(=O)C(c2c[nH]c3ccccc23)=C1c1c[nH]c2ccccc12 [RO-316233],CC50,[22],> 8000 nM
same,CC50,[23],> 8000 nM
same,IC50,[24],16 nM
same,log(activity),Influenza B virus [25],1
same,log(activity),Influenza A virus [26],1
